Among the data in patent US12391692B2, “Spiro ring-containing quinazoline compound” (WIGEN BIOMEDICINE TECHNOLOGY (SHANGHAI) CO., LTD., priority 2020, dated 2025) are IC50 and inhibition values, retold here.

A value given as a limit tells only on which side of the number the result lay.

For the first experiment, the system named is H358 cells. Description: Antiproliferative activity against H358 cells (Cell Titer Glow, ultra-low attachment plate). The format is cell-based. The following applies: Homo sapiens, NCI-H358, 72 h, three days after addition of compound. As to the method: 2500 H358 cells were seeded in a 96-well ultra-low attachment plate (corning, 7007). After one day of growth, a serially diluted compound (a maximum concentration of 5 μM, 5-fold dilution, a total of five doses) was added. Three days after the addition of the compound, Cell Titer Glow (Promega, G9681) was added to evaluate pellet growth, and the IC50 value was calculated.
In general, IC50 refers to the midpoint of a concentration-inhibition curve. The compound `C=CC(=O)N1CC2(CCN(c3nc(N4CC(n5cccn5)C4)nc4c(OCC(F)(F)F)c(-c5c(C)ccc6[nH]ncc56)c(C5CC5)cc34)CC2)C1` [Compound 40] gave an IC50 of more than 1000 nM.

As for `C=CC(=O)N1CC2(CCN(c3nc(N4CC(n5ccnc5)C4)nc4c(OCC(F)(F)F)c(-c5c(C)ccc6[nH]ncc56)c(C5CC5)cc34)CC2)C1` [Compound 41], the IC50 fell in the range of 300 to 1000 nM.

For `C=CC(=O)N1CC2(CCN(c3nc(N4CC(n5cncn5)C4)nc4c(OCC(F)(F)F)c(-c5c(C)ccc6[nH]ncc56)c(C5CC5)cc34)CC2)C1` [Compound 42], the IC50 was more than 1000 nM.

The compound `C=CC(=O)N1CC2(CCN(c3nc(N4CC(N5CC=CCC5)C4)nc4c(OCC(F)(F)F)c(-c5c(C)ccc6[nH]ncc56)c(C5CC5)cc34)CC2)C1` [Compound 43] had a half-inhibitory concentration (IC50) of more than 1000 nM.

Consider `C=CC(=O)N1CC2(CCN(c3nc(N4CC(N5CC[C@H](O)C5)C4)nc4c(OCC(F)(F)F)c(-c5c(C)ccc6[nH]ncc56)c(C5CC5)cc34)CC2)C1` [Compound 45], for which the concentration for half-maximal inhibition (IC50) was less than 300 nM.

Consider `C=CC(=O)N1CC2(CCN(c3nc(N4CC(C(=O)N5CCN(C)CC5)C4)nc4c(OCC(F)(F)F)c(-c5c(C)ccc6[nH]ncc56)c(C5CC5)cc34)CC2)C1` [Compound 46], for which the IC50 is less than 300 nM.

The compound `C=CC(=O)N1CC2(CCN(c3nc(N4CC(C(=O)N5CC(N(C)C)C5)C4)nc4c(OCC(F)(F)F)c(-c5c(C)ccc6[nH]ncc56)c(C5CC5)cc34)CC2)C1` [Compound 47] returned an IC50 of less than 300 nM.

Compound `C=CC(=O)N1CC2(CCN(c3nc(N4CC(C(=O)N5CC6(CN(C)C6)C5)C4)nc4c(OCC(F)(F)F)c(-c5c(C)ccc6[nH]ncc56)c(C5CC5)cc34)CC2)C1` [Compound 48] gave an IC50 of 300 to 1000 nM.

`C=CC(=O)N1CC2(CCN(c3nc(N4CC(S(=O)(=O)N5CCN(C)CC5)C4)nc4c(OCC(F)(F)F)c(-c5c(C)ccc6[nH]ncc56)c(C5CC5)cc34)CC2)C1` [Compound 49]: the half-inhibitory concentration (IC50) is less than 300 nM.

`C=CC(=O)N1CC2(CCN(c3nc(N4CC(S(=O)(=O)N5CC(N(C)C)C5)C4)nc4c(OCC(F)(F)F)c(-c5c(C)ccc6[nH]ncc56)c(C5CC5)cc34)CC2)C1` [Compound 50] yielded a concentration for half-maximal inhibition (IC50) of 300 to 1000 nM.

Compound `C=CC(=O)N1CC2(CCN(c3nc(N4CC(CC#N)(N(C)C)C4)nc4c(OCC(F)(F)F)c(-c5c(C)ccc6[nH]ncc56)c(C5CC5)cc34)CC2)C1` [Compound 51] showed an IC50 of less than 300 nM.

Compound `C=CC(=O)N1CC2(CCN(c3nc(N4CC(CC#N)(N(C)CCO)C4)nc4c(OCC(F)(F)F)c(-c5c(C)ccc6[nH]ncc56)c(C5CC5)cc34)CC2)C1` [Compound 52] displayed an IC50 of less than 300 nM.

In the case of `C=CC(=O)N1CC2(CCN(c3nc(N4CC(CC#N)(N(C)CCOC)C4)nc4c(OCC(F)(F)F)c(-c5c(C)ccc6[nH]ncc56)c(C5CC5)cc34)CC2)C1` [Compound 53], the concentration for half-maximal inhibition (IC50) was less than 300 nM.

The compound `C=CC(=O)N1CC2(CCN(c3nc(N4CC(CC#N)(N5CCC5)C4)nc4c(OCC(F)(F)F)c(-c5c(C)ccc6[nH]ncc56)c(C5CC5)cc34)CC2)C1` [Compound 54] came in with a half-inhibitory concentration (IC50) of less than 300 nM.

`C=CC(=O)N1CC2(CCN(c3nc(N4CC(CC#N)(N5CCCC5)C4)nc4c(OCC(F)(F)F)c(-c5c(C)ccc6[nH]ncc56)c(C5CC5)cc34)CC2)C1` [Compound 55] showed an IC50 of less than 300 nM.

For `C=CC(=O)N1CC2(CCN(c3nc(N4CC(CC#N)(N5CCOCC5)C4)nc4c(OCC(F)(F)F)c(-c5c(C)ccc6[nH]ncc56)c(C5CC5)cc34)CC2)C1` [Compound 56], the 50% inhibitory concentration (IC50) is less than 300 nM.

As to `C=CC(=O)N1CC2(CCN(c3nc(N4CC(CC#N)(n5ccnc5)C4)nc4c(OCC(F)(F)F)c(-c5c(C)ccc6[nH]ncc56)c(C5CC5)cc34)CC2)C1` [Compound 57], the half-inhibitory concentration (IC50) was 300 to 1000 nM.

The compound `C=CC(=O)N1CC2(CCN(c3nc(N4CCC(CC#N)(N5CCC5)CC4)nc4c(OCC(F)(F)F)c(-c5c(C)ccc6[nH]ncc56)c(C5CC5)cc34)CC2)C1` [Compound 58] showed an IC50 of less than 300 nM.

The subject of a further experiment is pERK level in H358 cells. Kind of experiment: pERK and ERK protein content assay in H358 cells (ELISA). Type of experiment: cell-based. The settings on record: Homo sapiens, NCI-H358, pERK/ERK ratio vs DMSO group, compound 1 μM, 24 h, read-out: Inhibition rate (%). As to the method: H358 cells were seeded in a 24-well plate. After one day of growth, a test compound (at a concentration of 1 μM) was added. After 24 h of action of the compound, the cells were lysed, and the cell lysate was transferred to a 96-well ELISA plate. The levels of pERK and ERK in the lysate were measured using an ELISA kit (abcam 176660). The ratio of pERK to ERK was calculated and compared with that of the DMSO group, and the percentage of inhibition of pERK activity by the compound was calculated.
(An ELISA detects its analyte on a solid surface through an enzyme-linked reagent.)
Usually inhibition stands for how much of the control response was suppressed. In the case of `C=CC(=O)N1CC2(CCN(c3nc(N4CC(n5cccn5)C4)nc4c(OCC(F)(F)F)c(-c5c(C)ccc6[nH]ncc56)c(C5CC5)cc34)CC2)C1` [Compound 40], the inhibition at 1 µM lay in the range of 50 to 90%.

Regarding `C=CC(=O)N1CC2(CCN(c3nc(N4CC(n5ccnc5)C4)nc4c(OCC(F)(F)F)c(-c5c(C)ccc6[nH]ncc56)c(C5CC5)cc34)CC2)C1` [Compound 41], the inhibition at 1 µM was 50 to 90%.

With `C=CC(=O)N1CC2(CCN(c3nc(N4CC(n5cncn5)C4)nc4c(OCC(F)(F)F)c(-c5c(C)ccc6[nH]ncc56)c(C5CC5)cc34)CC2)C1` [Compound 42], the inhibition at 1 µM lay in the range of 50 to 90%.

Turning to `C=CC(=O)N1CC2(CCN(c3nc(N4CC(N5CC=CCC5)C4)nc4c(OCC(F)(F)F)c(-c5c(C)ccc6[nH]ncc56)c(C5CC5)cc34)CC2)C1` [Compound 43], the inhibition at 1 µM lay within 50 to 90%.

As for `C=CC(=O)N1CC2(CCN(c3nc(N4CC(N5CC[C@H](O)C5)C4)nc4c(OCC(F)(F)F)c(-c5c(C)ccc6[nH]ncc56)c(C5CC5)cc34)CC2)C1` [Compound 45], the inhibition at 1 µM is more than 90%.

On to `C=CC(=O)N1CC2(CCN(c3nc(N4CC(C(=O)N5CCN(C)CC5)C4)nc4c(OCC(F)(F)F)c(-c5c(C)ccc6[nH]ncc56)c(C5CC5)cc34)CC2)C1` [Compound 46], for which the inhibition at 1 µM was more than 90%.

Consider `C=CC(=O)N1CC2(CCN(c3nc(N4CC(C(=O)N5CC(N(C)C)C5)C4)nc4c(OCC(F)(F)F)c(-c5c(C)ccc6[nH]ncc56)c(C5CC5)cc34)CC2)C1` [Compound 47], for which the inhibition at 1 µM is more than 90%.

`C=CC(=O)N1CC2(CCN(c3nc(N4CC(C(=O)N5CC6(CN(C)C6)C5)C4)nc4c(OCC(F)(F)F)c(-c5c(C)ccc6[nH]ncc56)c(C5CC5)cc34)CC2)C1` [Compound 48]: the inhibition at 1 µM was 50 to 90%.

`C=CC(=O)N1CC2(CCN(c3nc(N4CC(S(=O)(=O)N5CCN(C)CC5)C4)nc4c(OCC(F)(F)F)c(-c5c(C)ccc6[nH]ncc56)c(C5CC5)cc34)CC2)C1` [Compound 49]: the inhibition at 1 µM is more than 90%.

Take `C=CC(=O)N1CC2(CCN(c3nc(N4CC(S(=O)(=O)N5CC(N(C)C)C5)C4)nc4c(OCC(F)(F)F)c(-c5c(C)ccc6[nH]ncc56)c(C5CC5)cc34)CC2)C1` [Compound 50]: the inhibition at 1 µM lay within 50 to 90%.

For the compound `C=CC(=O)N1CC2(CCN(c3nc(N4CC(CC#N)(N(C)C)C4)nc4c(OCC(F)(F)F)c(-c5c(C)ccc6[nH]ncc56)c(C5CC5)cc34)CC2)C1` [Compound 51], the inhibition at 1 µM is more than 90%.

For `C=CC(=O)N1CC2(CCN(c3nc(N4CC(CC#N)(N(C)CCO)C4)nc4c(OCC(F)(F)F)c(-c5c(C)ccc6[nH]ncc56)c(C5CC5)cc34)CC2)C1` [Compound 52], the inhibition at 1 µM was more than 90%.

Consider `C=CC(=O)N1CC2(CCN(c3nc(N4CC(CC#N)(N(C)CCOC)C4)nc4c(OCC(F)(F)F)c(-c5c(C)ccc6[nH]ncc56)c(C5CC5)cc34)CC2)C1` [Compound 53], for which the inhibition at 1 µM was more than 90%.

In the case of `C=CC(=O)N1CC2(CCN(c3nc(N4CC(CC#N)(N5CCC5)C4)nc4c(OCC(F)(F)F)c(-c5c(C)ccc6[nH]ncc56)c(C5CC5)cc34)CC2)C1` [Compound 54], the inhibition at 1 µM was more than 90%.

In the case of `C=CC(=O)N1CC2(CCN(c3nc(N4CC(CC#N)(N5CCCC5)C4)nc4c(OCC(F)(F)F)c(-c5c(C)ccc6[nH]ncc56)c(C5CC5)cc34)CC2)C1` [Compound 55], the inhibition at 1 µM was more than 90%.

As for `C=CC(=O)N1CC2(CCN(c3nc(N4CC(CC#N)(N5CCOCC5)C4)nc4c(OCC(F)(F)F)c(-c5c(C)ccc6[nH]ncc56)c(C5CC5)cc34)CC2)C1` [Compound 56], the inhibition at 1 µM is more than 90%.

On to `C=CC(=O)N1CC2(CCN(c3nc(N4CC(CC#N)(n5ccnc5)C4)nc4c(OCC(F)(F)F)c(-c5c(C)ccc6[nH]ncc56)c(C5CC5)cc34)CC2)C1` [Compound 57], for which the inhibition at 1 µM fell in the range of 50 to 90%.

For the compound `C=CC(=O)N1CC2(CCN(c3nc(N4CCC(CC#N)(N5CCC5)CC4)nc4c(OCC(F)(F)F)c(-c5c(C)ccc6[nH]ncc56)c(C5CC5)cc34)CC2)C1` [Compound 58], the inhibition at 1 µM is more than 90%.
